Results as given in patent US20060024691A1, “Novel pathways in the etiology of cancer” (Buck Institute for Age Research, priority 2004, published 2006).
Entries after “also recorded” stand apart in the source; their conditions may differ. Like-named read-outs stand apart in the source and are kept apart here. Peptide text beside a SMILES is read from it. * marks the point of attachment. Cbz = O=C(OCc1ccccc1)*

Columns and labels:
[1] = test system: ERα Ser-167 (67 kD ERα and 52 kD ERα variant); assay type: cell-based, human; conditions: for block of K3-induced p-Ser-167 ERα formation: MCF7 cells, co-treatment with K3
Procedure: (§1) Human breast cancer cell lines MCF7 and T47D were obtained from the American Type Culture Collection (ATCC). MCF7 cells were maintained in Dulbecco's Modification of Eagle's Medium (Cellgro) supplemented with 10% fetal bovine serum (Cellgro), 1% penicillin/streptomycin (Cellgro) and 10 μg/ml insulin (Sigma). T47D cells were maintained in RPMI (Cellgro) supplemented with 10% fetal bovine serum, 1% penicillin/streptomycin and 10 μg/ml insulin. Treatment conditions for both cell lines involved plating ˜1×10^6 cells in normal media onto 10 cm dishes, attachment and growth for 24 hours followed by a change to estrogen-free culture conditions (phenol red-free DME H-16 supplemented with 10% charcoal stripped serum, 1% penicillin/streptomycin and 10 μg/ml insulin) for an additional 24 hours. Cells were then treated as indicated for 30 minutes before extract preparation. Indicated conditions involved 30 minute pretreatments.
(§2) Following aspiration of the media and one ice cold PBS wash, cells growing on 10 cm dishes were harvested using a cell scraper and 0.7 ml of ice cold cell lyses buffer ([…], 1.5 mM MgCl2, […] KCl, 1 mM DTT, […] NaFl, 5% glycerol, 0.45% NP40 (Igepal, Sigma) and mincomplete protease inhibitors (Roche)). […] For preparation of high-salt nuclear extracts (nucleoplasm), isolated nuclei were resuspended for 20 minutes in ice cold extraction buffer (0.4 M NaCl, 25 mM Tris pH 7.5, 1 mM DTT, 20% glycerol, 10 mM NaFl and min-complete protease inhibitors (Roche)) followed by a 4° C. centrifugation at 16,000×g for 15 minutes.
(§3) Equal amounts of protein from the various extracts were mixed with 2× SDS sample buffer (125 mM Tris pH6.8, 20% glycerol, 2% SDS, 0.28 M 2-mercaptoethanol and0.5% Bromphenol Blue), heated for 5 minutes at 90° C. and electrophoresed on NuPAGE 4-12% Bis-Tris gels (Invitrogen) using NuPAGE MOPS SDS running buffer (Invitrogen) and full range Rainbow recombinant protein molecular weight markers (Amersham Pharmacia). […] Membranes were then blocked for 30 minutes in blocking buffer (150 mM NaCl, 20 mM Tris pH 7.5, 0.3% Tween-20 and 4% Nonfat dry milk powerby weight).

[2] = test system: ERα Ser-118 (67 kD ERα and 52 kD ERα variant); assay type: cell-based, human; conditions: for Ser-118 phosphorylation of ER induced by treatment: MCF-7/T47D cells, charcoal-stripped media, 30 min, menadione 100 μM, estradiol 10 nM, other quinones at equitoxic doses
Procedure: as §1, §2, §3

ERK1/ERK2 = experiment: MAPK activation: ERK1/ERK2 phosphorylation, Western blot; assay type: cell-based, human; conditions: MCF7 cells; for effect on K3 induced phospho-ERK1/2 formation (MAPK activation): co-treatment with K3
Procedure: as §1
For preparation of high-salt nuclear extracts (nucleoplasm), isolated nuclei were resuspended for 20 minutes in ice cold extraction buffer (0.4 M NaCl, 25 mM Tris pH 7.5, 1 mM DTT, 20% glycerol, 10 mM NaFl and min-complete protease inhibitors (Roche)) followed by a 4° C. centrifugation at 16,000×g for 15 minutes.
Membranes were then blocked for 30 minutes in blocking buffer (150 mM NaCl, 20 mM Tris pH 7.5, 0.3% Tween-20 and 4% Nonfat dry milk powerby weight).

NFκB = NFκB DNA-binding by EMSA, nuclear extracts of menadione treated MCF-7 cells; assay type: cell-based, human; conditions: 30 min pretreatment: MG-132 25 μM, PS-341 5 μM, PDTC 100 μM, PA 50 μM; then menadione 100 μM 30 min
Procedure: (§4) PS-341 was kindly provided by Millennium Pharmaceuticals Inc. (Cambridge, Mass.). […] For assessment of combined treatment effects on cell viability, 2×10^4 cells (MCF-7, MCF-7/HER2, BT474) grown in 24-well plates were first treated with tamoxifen (dissolved in ethanol) and/or parthenolide (dissolved in DMSO); for the combination treatment pathenolide was added 4 h before addition of tamoxifen. Cell viability was measured 18 h after tamoxifen treatment using the sulforhodamine B (SRB) assay (Skehan, et al. 1990). Briefly, cells fixed with trichloroacetic acid were stained for 30 min with 0.4% SRB dissolved in 1% acetic acid. Unbound dye was removed by four washes with 1% acetic acid, and protein-bound dye was extracted with 10 mM unbuffered Tris base [tris(hydroxymethyl)aminomethane] for determination of optical density at 564 nm.
(§5) Fractionation of control and treated cells into cytoplasmic and nuclear extracts was performed as previously described (Dignam et al., 1983), with minor modification. Cells harvested on ice were washed twice with cold PBS, scraped and resuspended in 1.0 ml hypotonic buffer (20 mM HEPES, pH 7.0; 10 mM KCl; 1 mM MgCl2; 0.1% Triton X-100; 20% glycerol; 0.5 mM DTT) containing a cocktail of protease inhibitors (Mini CompleteTM protease inhibitors, Roche Diagnostics, Mannheim, Germany). The harvested cells were Dounce homogenized on ice, the mixture centrifuged at 3,000 rpm at 4° C. (5 min), and the cytoplasmic fraction separated from the nuclear pellet which was resuspended in elution buffer (20 mM HEPES, pH 7.0; 10 mM KCl; 1 mM MgCl2; 0.42 M NaCl; 0.1% Triton X-100; 20% glycerol; 0.5 mM DTT), supplemented with protease inhibitors. After 20 min at 4° C. the buffered mixture was centrifuged at 14,000 rpm at 4° C. (10 min) to obtain solubilized nuclear extracts which were then stored in aliquots at −80° C. after protein determination (Bradford; BioRad, Hercules, Calif.) and for subsequent NFkB DNA-binding assays.
NFκB DNA-binding activity was measured by two different techniques. Analogous to previous tumor extract scoring of Sp1 DNA-binding protein (Quong et al., 2002), total specific NFκB DNA-binding protein was determined by electrophoretic morbility shift assay (EMSA) as follows. A duplexed oligonucleotide probe (Promega, Madison, Wis.) with sense strand containing the decameric κB consensus binding sequence (underlined) 5′-[…]-3′(SEQ ID NO:4) was end-labeled with [γ-P32]ATP (PerkinElmer, Boston, Mass.) using T4 polynucleotide kinase (Promega, Madison, Wis.) and purified with G-50 Sephadex Bio-Spin columns (BioRad, Hercules, Calif.). […]

NF-κB p50 = NF-κB p50 DNA-binding (TransAM assay); assay type: cell-based, human; conditions: ER-positive cells, 10 μM, 30 min
Procedure: (§6) Quantitative p50 and p65 NFκB DNA-binding were also determined using ELISA based Trans-AMTM assays in accordance with the manufacturer's instructions (ActiveMotif; Carlsbad, Calif.). In these commercial kits, a duplexed NFκB oligonucleotide containing the same κB consensus sequence described for the EMSA assay above is attached to the surface of 96-well plates. Activated NFκB in tumor or nuclear extracts that is first bound to the attached oligonucleotide is specifically and quantitatively detected by subsequent incubation with p50 or p65 specific antibody followed by an enzyme (HRP)-linked secondary for colorimetric (OD450 nm absorbance) scoring. Standard curves to establish the linear assay range for Trans-AMTM determinations of p50 and p65 NFκB DNA-binding activities were performed using graded amounts of control (IL-1 treated) HeLa cell nuclear extracts (0.625 to 10 μg/well) and for comparison with a panel of nuclear extracts from six human breast cancer cell lines (MCF-7, T47D, BT474, MCF-7/HER2, SkBr3, MDA-231).

[3] = test system: p50 and p65 NFκB subunits; experiment: Immunoblot of nuclear p50 and p65 NFκB subunits in MCF-7 cells; assay type: cell-based, human; conditions: MCF-7; MG-132 25 μM, PS-341 5 μM, PDTC 100 μM, PA 50 μM
Procedure: as §4, §5
Antibodies against p50 NFκB, p65 NFκB, IκB, and β-actin proteins were commercially obtained (Santa Cruz Biotechnology, Santa Cruz, Calif.; and Abcam Inc., Cambridge, Mass.). […]; 4% SDS; 20% glycerol; and 10% 2-mercaptoethanol) and resolved by electrophoresis in 4-12% Bis-Tris SDS gradient gels in morpholinepropane sulfonic acid (MOPS) buffer. Separated proteins were transferred onto polyvinylidene difluoride membranes (Millipore Co., Billerica, Mass.), blocked with 5% non-fat milk in PBS containing 0.1% Tween-20, and membranes immunoblotted with the indicated antibodies in blocking solution. […]

NF-κB p65 = NF-κB p65 DNA-binding (TransAM assay); assay type: cell-based, human; conditions: ER-positive cells, 10 μM, 30 min
Procedure: as §6

BT474 cells = conditions: 5-7 days, concentrations approaching 1000 nM; cited from earlier work
MCF-7 cells = conditions: 5-7 days, concentrations approaching 1000 nM; cited from earlier work
MCF-7/HER2 cells = conditions: 5-7 days, concentrations approaching 1000 nM; cited from earlier work

Structure (SMILES): C[C@]12CC[C@@H]3c4ccc(O)c(O)c4CC[C@H]3[C@@H]1CCC2=O [4-OHE, 4-hydroxyestrone]
- Ser-167 phosphorylation of ERα induced by treatment ([1]; MCF7 nuclear extracts, 30 min): induced Ser-118 and Ser-167 phosphorylation of the 52 kD ERα nuclear variant
- Ser-118 phosphorylation of ER induced by treatment [2]: induced Ser-118 and Ser-167 phosphorylation of the 52 kD ERα nuclear variant
- ERK1/ERK2 phosphorylation induced by treatment (ERK1/ERK2; 30 minutes): phosphorylating ERK1/2

Structure (SMILES): COC1=C(OC)C(=O)c2ccccc2C1=O [DMNQ]
- Ser-118 phosphorylation of ER induced by treatment [2]: no Ser˜118 phosphorylation

Structure (SMILES): CC(C)C[C@@H](C=O)NC(=O)[C@H](CC(C)C)NC(=O)[C@H](CC(C)C)NC(=O)OCc1ccccc1 [MG-132] (Cbz-Leu-Leu-Leu-aldehyde)
- inhibition of menadione-induced NFκB DNA-binding / activation (NFκB): complete inhibition; also recorded: completely inhibited
- decrease in the DNA-binding of p50 subunit (NF-κB p50): 60%
- nuclear p50 and p65 NFκB subunit content, inhibitor pretreatment before menadione [3]: marked reductions
- decrease in the DNA-binding of p65 subunit (NF-κB p65): 60%

Structure (SMILES): CC(=O)N[C@@H](CS)C(=O)O [NAC, N-acetyl cysteine]
- block of K3-induced p-Ser-167 ERα formation [1]: blocked
- block of K3-induced p-Ser-167 ERα formation ([1]; listed as N-acetyl cysteine): effectively block
- effect on K3 induced phospho-ERK1/2 formation (MAPK activation) (ERK1/ERK2): blocked; also recorded: completely block
- effect on K3 induced phospho-ERK1/2 formation (MAPK activation) (ERK1/ERK2; listed as N-acetyl cysteine): without inhibiting MAPK activity

Structure (SMILES): S=C(S)N1CCCC1 [PDTC, pyrrolidine dithiocarbamate]
- inhibition of menadione-induced NFκB DNA-binding / activation (NFκB): complete inhibition
- nuclear p50 and p65 NFκB subunit content, inhibitor pretreatment before menadione [3]: marked reductions

Structure (SMILES): CC(C)C[C@H](NC(=O)[C@H](Cc1ccccc1)NC(=O)c1cnccn1)B(O)O [PS-341]
- inhibition of menadione-induced NFκB DNA-binding / activation (NFκB): complete inhibition; also recorded: completely inhibited
- nuclear p50 and p65 NFκB subunit content, inhibitor pretreatment before menadione [3]: marked reductions

Structure (SMILES): C[S+]([O-])c1ccc(-c2nc(-c3ccncc3)c(-c3ccc(F)cc3)[nH]2)cc1 (stereo not drawn) [SB203580]
- block of K3-induced p-Ser-167 ERα formation [1]: no affect

Structure (SMILES): N#CC(=C(/N)Sc1ccccc1N)/C(C#N)=C(\N)Sc1ccccc1N [U0126]
- effect on K3 induced phospho-ERK1/2 formation (MAPK activation) (ERK1/ERK2): only minimal activation detectable

Structure (SMILES): O=c1oc2ccccc2c(O)c1Cc1c(O)c2ccccc2oc1=O [dicumarol]
- block of K3-induced p-Ser-167 ERα formation [1]: virtually complete inhibition; also recorded: effectively block
- inhibition of K3-induced p-Ser-118 ERα ([2]; MCF7 cells, dicumarol added concurrently with K3): at least 75%

Structure (SMILES): O=C1C=CC(=O)C=C1 [p-benzoquinone]
- Ser-118 phosphorylation of ER induced by treatment [2]: no Ser˜118 phosphorylation

Structure (SMILES): CC/C(=C(\c1ccccc1)c1ccc(OCCN(C)C)cc1)c1ccccc1 [tamoxifen, [Z]-1-[p-dimethylaminoethoxyphenyl]-1,2-diphenyl-1 butene]
- cellular reductions (viable cell number) (BT474 cells): ~25%
- reduction in viable cell number (MCF-7 cells): ~50%
- cellular reductions (viable cell number) (MCF-7/HER2 cells): ~25%
